The test system of test [1] is CT26 tumor cells. The test is described as follows: In vivo anti-tumor efficacy, CT26 colorectal carcinoma mouse allograft model. Set-up: species or system BALB/C mice. Here is the method: The efficacy of the SIRPα-Fc-CD40L chimeric protein was evaluated in combination with a spindle toxin. Towards that, the ability of paclitaxel and chimeric proteins to target and reduce tumor volume in vivo was determined. Briefly, BALB/C mice were inoculated with 500,000 CT26 tumor cells. When tumor volumes were approximately 50 to 60 mm^3 (day 0), the mice were randomly distributed in the following treatment groups: (1) vehicle only control, (2) 300 μg of the SIRPα-Fc-CD40L chimeric protein alone, (3) 24 mg/kg paclitaxel alone, and (4) a combination 300 μg of the SIRPα-Fc-CD40L chimeric protein and 24 mg/kg paclitaxel. The mice were dosed on days 0, 3 and 6 via intraperitoneal injections. Tumors were measured with electronic calipers on day 14 and plotted using the GraphPad Prism software.
The efficacy of the SIRPα-Fc-CD40L chimeric protein was evaluated in combination with an antimetabolite or. Towards that, the ability of 5-fluorouracil and chimeric proteins to target and reduce tumor volume in vivo was determined. Briefly, BALB/C mice were inoculated with 500,000 CT26 tumor cells. When tumor volumes were approximately 50 to 60 mm^3 (day 0), the mice were randomly distributed in the following treatment groups: (1) vehicle only control, (2) 300 μg of the SIRPα-Fc-CD40L chimeric protein alone, (3) 20 mg/kg 5-fluorouracil alone, and (4) a combination 300 μg of the SIRPα-Fc-CD40L chimeric protein and 20 mg/kg 5-fluorouracil. The mice were dosed via intraperitoneal injections as follows: the SIRPα-Fc-CD40L chimeric protein was administered on days 0, 3 and 6; and 5-fluorouracil was administered on days 0, 2 and 4. Tumors were measured with electronic calipers on day 11 and plotted using the GraphPad Prism software.
The efficacy of the SIRPα-Fc-CD40L chimeric protein was evaluated in combination with a topoisomerase I inhibitor. Towards that, the ability of irinotecan and chimeric proteins to target and reduce tumor volume in vivo was determined. Briefly, BALB/C mice were inoculated with 500,000 CT26 tumor cells. When tumor volumes were approximately 50 to 60 mm^3 (day 0), the mice were randomly distributed in the following treatment groups: (1) vehicle only control, (2) 300 μg of the SIRPα-Fc-CD40L chimeric protein alone, (3) 25 mg/kg irinotecan alone, and (4) a combination 300 μg of the SIRPα-Fc-CD40L chimeric protein and 25 mg/kg irinotecan. The mice were dosed on days 0 and 2 via intraperitoneal injections. Tumors were measured with electronic calipers on day 4 and plotted using the GraphPad Prism software.
The efficacy of the SIRPα-Fc-CD40L chimeric protein was evaluated in combination with an anthracycline. Towards that, the ability of doxorubicin and chimeric proteins to target and reduce tumor volume in vivo was determined. Briefly, BALB/C mice were inoculated with 500,000 CT26 tumor cells. When tumor volumes were approximately 50 to 60 mm^3 (day 0), the mice were randomly distributed in the following treatment groups: (1) vehicle only control, (2) 300 μg of the SIRPα-Fc-CD40L chimeric protein alone, (3) 8 mg/kg doxorubicin alone, and (4) a combination 300 μg of the SIRPα-Fc-CD40L chimeric protein and 8 mg/kg doxorubicin. The mice were dosed with the SIRPα-Fc-CD40L chimeric protein on days 0, 3 and 6 via intraperitoneal injections, and with doxorubicin thrice through the tail vein. Tumors were measured with electronic calipers on day 7 and plotted using the GraphPad Prism software.
The efficacy of the SIRPα-Fc-CD40L chimeric protein was evaluated in combination with a platinum compound. Towards that, the ability of cisplatin and chimeric proteins to target and reduce tumor volume in vivo was determined. Briefly, BALB/C mice were inoculated with 500,000 CT26 tumor cells. […]

In test [2] the test system is ARD1 human multiple myeloma cells. The test is described as follows: Phagocytosis of ARD1 cells by human macrophages (flow cytometry): elotuzumab and/or SIRPα-Fc-CD40L. It counts as cell-based. The settings on record: 1 μg/ml elotuzumab and/or SIRPα-Fc-CD40L (10 μg/ml alone; 10 pg/ml in the combination), 4 hours; combination p<0.05 vs vehicle; FIG. 8. Here is the method: Briefly, the ARD1 human multiple myeloma cells were labeled with a green fluorescent tracker and co-cultured with human macrophages and treated with (1) vehicle alone control, (2) 10 μg/ml of the SIRPα-Fc-CD40L chimeric protein, (3) 1 μg/ml of elotuzumab (an antibody-dependent cellular phagocytosis (ADCP)-proficient anti-SLAMF7 antibody), or (4) 1 μg/ml of elotuzumab and 10 pg/ml of the SIRPα-Fc-CD40L chimeric protein and incubated at 37° C. in the presence of 5% CO2 for 4 hours. After this incubation, the cells were harvested and treated with an anti-CD11b antibody (a macrophage marker) and were analyzed using flow cytometry. Positive phagocytosis was determined by the overlap in signals of tumor (the green fluorescent tracker) and macrophage (anti-CD11b antibody staining). A phagocytosis index was calculated by setting the maximum phagocytosis value to 1, and then normalizing all other replicates accordingly. The phagocytosis index was plotted for the indicated treatments.
(In general: A flow cytometer gives signals particle by particle.)

Test [3] relates to ARD1 human multiple myeloma (MM) cells. The test is described as follows: Phagocytosis of ARD1 cells by human macrophages (IncuCyte phRodo Red imaging): daratumumab and/or SIRPα-Fc-CD40L. It counts as cell-based. Particulars: 1 μg/ml daratumumab and/or 10 μg/ml SIRPα-Fc-CD40L, 2 hours, combination p<0.0001 vs vehicle, FIG. 6. As for the experimental part:
Briefly, the ARD1 human multiple myeloma (MM) cells were labeled the IncuCyte phRodo Red cell labeling kit and co-cultured with human macrophages and treated with (1) vehicle alone control, (2) 10 μg/ml of the SIRPα-Fc-CD40L chimeric protein, (3) 1 μg/ml of daratumumab (an antibody-dependent cellular phagocytosis (ADCP)-proficient anti-CD38 antibody), or (4) 1 μg/ml of an daratumumab and 10 μg/ml of the SIRPα-Fc-CD40L chimeric protein and incubated at 37° C. in the presence of 5% CO2 for 2 hours. Cultures were imaged using the IncuCyte time-lapse microscopy system, and positive phagocytosis was determined by an increase in red fluorescent intensity which occurs when the phRodo Red labeled tumor cell is internalized into the acidic macrophage phagosome. A phagocytosis index was calculated by setting the maximum phagocytosis value to 1, and then normalizing all other replicates accordingly. The phagocytosis index was plotted for the indicated treatments.

Test [4] has the same test system. The experiment in a line: Phagocytosis of ARD1 cells by human macrophages (flow cytometry): bortezomib and/or SIRPα-Fc-CD40L. The format is cell-based. Particulars: 1 pM bortezomib overnight and/or SIRPα-Fc-CD40L for 4 hours; combination p<0.0001 vs control; FIG. 3B. Here is the method: (§1) In another experiment, the ARD1 human multiple myeloma (MM) cells were labeled with a green fluorescent tracker and treated with vehicle alone control or 1 pM bortezomib overnight. The following day, the tumor cells were washed in PBS and then co-cultured with human macrophages with or without the SIRPα-Fc-CD40L chimeric protein for 4 hours at 37° C. in the presence of 5% CO2. After this incubation, the cells were harvested and treated with an anti-CD11b antibody (a macrophage marker) and were analyzed using flow cytometry. Positive phagocytosis was determined by the overlap in signals of tumor (the green fluorescent tracker) and macrophage (anti-CD11b antibody staining). A phagocytosis index was calculated by setting the maximum phagocytosis value to 1, and then normalizing all other replicates accordingly. The phagocytosis index was plotted for the indicated treatments.

For test [5], the system named is MM1R human multiple myeloma (MM) cells. The experiment in a line: Phagocytosis of MM1R cells by human macrophages (flow cytometry): bortezomib and/or SIRPα-Fc-CD40L. The format is cell-based. Particulars: 1 pM bortezomib overnight and/or SIRPα-Fc-CD40L for 4 hours; combination p<0.0001 vs control; FIG. 3A. As for the experimental part: as §1, with “Briefly,” for “In another experiment,”, “MM1R” for “ARD1”

Test [6] concerns KMS12B multiple myeloma cells. The experiment in a line: Phagocytosis of KMS12B cells by M1 macrophages with activated T cells (flow cytometry): pomalidomide with or without SIRPα-Fc-CD40L. The format is cell-based, human. Particulars: 10 μM pomalidomide, CD3/CD28 activated T cells, M1 polarized macrophages, 4 hours; FIG. 7. Here is the method: Briefly, CD14+ monocytes were isolated from human donor PBMCs and cultured with m-CSF (100 ng/ml) for 6 days. On day 6, IFNγ (100 ng/ml) and LPS (10 ng/ml) were added to the cells for an additional 24 hours, generating M1 polarized macrophages. On day 5 of the macrophage differentiation, another vial of PBMCs from the same human donor was thawed, and CD3 T cells were isolated using a magnetic bead isolation kit. These T cells were activated for 2 days with CD3/CD28 T cell magnetic activation beads. On day 7 when both the macrophages and T cells were activated and ready, they were combined with KMS12B multiple myeloma cells, which were labeled with a green fluorescent tracker, with 10 μM pomalidomide and with or without 50 μg/ml of the SIPRα-Fc-CD40L chimeric protein. KMS12B cells incubated with the macrophages and 10 μM pomalidomide, without T cells, were used as a negative control. This coculture was incubated for 4 hours at 37° C., 5% CO2. After this incubation, the cells were harvested and treated with an anti-CD11b antibody (a macrophage marker) and were analyzed using flow cytometry. Positive phagocytosis was determined by the overlap in signals of tumor (the green fluorescent tracker) and macrophage (anti-CD11b antibody staining). A phagocytosis index was calculated by setting the maximum phagocytosis value to 1, and then normalizing all other replicates accordingly. […]

On to `O=C1[O][Pt]2([NH][C@@H]3CCCC[C@H]3[NH]2)[O]C1=O` [oxaliplatin], for which, in test [1] (day 4, 300 μg SIRPα-Fc-CD40L (days 0 and 3) and/or 10 mg/kg oxaliplatin (day 0), intraperitoneal, FIG. 10F), the tumor size entry is recorded as “reduction in tumor size”.

For the compound `CCc1c2c(nc3ccc(OC(=O)N4CCC(N5CCCCC5)CC4)cc13)-c1cc3c(c(=O)n1C2)COC(=O)[C@]3(O)CC` [irinotecan], the tumor size entry in test [1] (day 4, 300 μg SIRPα-Fc-CD40L and/or 25 mg/kg irinotecan, intraperitoneal, days 0 and 2, FIG. 10C) was “reduction in tumor size”.

For the compound `N.N.[Cl][Pt][Cl]` [cisplatin], the tumor size result in test [1] (day 4, 300 μg SIRPα-Fc-CD40L (days 0 and 3) and/or 200 μg cisplatin (day 0), intraperitoneal, FIG. 10E) was “reduction in tumor size”. As for “elotuzumab: an antibody-dependent cellular phagocytosis (ADCP)-proficient anti-SLAMF7 antibody”, the “level of phagocytosis (phagocytosis index) compared to the vehicle only-treated ARD1 cells” value in test [2] was “increased level of phagocytosis”. As to `CC(=O)O[C@H]1C(=O)[C@@]2(C)[C@H]([C@H](OC(=O)c3ccccc3)[C@]3(O)C[C@H](OC(=O)[C@H](O)[C@@H](NC(=O)c4ccccc4)c4ccccc4)C(C)=C1C3(C)C)[C@]1(OC(C)=O)CO[C@@H]1C[C@@H]2O` [paclitaxel], the tumor size result in test [1] (day 14, 300 μg SIRPα-Fc-CD40L and/or 24 mg/kg paclitaxel, intraperitoneal, days 0, 3 and 6, FIG. 10A) was “reduction in tumor size”. As for “daratumumab: an antibody-dependent cellular phagocytosis (ADCP)-proficient anti-CD38 antibody”, the “level of phagocytosis (phagocytosis index) compared to the vehicle only-treated ARD1 cells” value in test [3] is “increased level of phagocytosis”. Turning to `CC(C)C[C@H](NC(=O)[C@H](Cc1ccccc1)NC(=O)c1cnccn1)B(O)O` [bortezomib], in test [4], the “level of phagocytosis (phagocytosis index) compared to the control ARD1 cells” value is “increased level of phagocytosis”. The “level of phagocytosis (phagocytosis index) compared to the control MM1R cells” value in test [5] was “increased level of phagocytosis”. For the compound `COc1cccc2c1C(=O)c1c(O)c3c(c(O)c1C2=O)C[C@@](O)(C(=O)CO)C[C@@H]3O[C@H]1C[C@H](N)[C@H](O)[C@H](C)O1` [doxorubicin], the tumor size entry in test [1] (day 7, 300 μg SIRPα-Fc-CD40L (intraperitoneal, days 0, 3, 6) and/or 8 mg/kg doxorubicin (thrice, tail vein), FIG. 10D) was “reduction in tumor size”. Turning to `Nc1cccc2c1C(=O)N(C1CCC(=O)NC1=O)C2=O` (centres unmarked) [pomalidomide], the “phagocytosis of KMS12B cells incubated with T cells, macrophages and pomalidomide compared to incubation without T cells (negative control)” value in test [6] is on record as “increased phagocytosis”.

As to `O=c1[nH]cc(F)c(=O)[nH]1` [5-fluorouracil], the tumor size result in test [1] (day 11, 300 μg SIRPα-Fc-CD40L (days 0, 3, 6) and/or 20 mg/kg 5-fluorouracil (days 0, 2, 4), intraperitoneal, combination vs vehicle p<0.01, vs 5-fluorouracil alone p<0.05, FIG. 10B) is “reduction in tumor size”.
